Consider 8 compounds from patent US20150344426A1, “COMPOUNDS AND THERAPEUTIC USES THEREOF” (ALZHEIMER'S INSTITUTE OF AMERICA, INC., priority 2012, published 2015).

Structures are written as SMILES.

Series [1] in a line: Kinetic solubility (iSol Explorer method). In kind it is physicochemical. As to conditions: system solution buffer (pION), aqueous buffer, kinetic from dmso stock. On the procedure: Kinetic solubility was determined using the iSol Explorer method (pION Inc.; Woburn, Mass.). Certain Example Compounds were dissolved in dimethylsulfoxide (DMSO; >99.9% ACS spectrophotometric grade; Sigma-Aldrich, St. Louis, Mo.) to a concentration of 100 mM. The DMSO stock was diluted 1:100 in system solution buffer (pION Inc. Wobum Mass.) that had been adjusted to the desired pH (5.0, 6.8, and 7.4) with either HCl or NaOH. The diluted samples in the desired buffer were incubated for 15 minutes at room temperature and filtered using 96-well plate with 0.25 mm glass fiber/1.2 μm polyethersulfone filter bottoms (Corning, Inc.; Corning, N.Y.). The filtrate is transferred to a second 96-well plate and read on a SpectraMAX 190 (Molecular Devices; Sunnyvale, Calif.) scanning from 190 to 498 nm. The data are analyzed with Sol Explorer Command version 2.2, (pION Inc. Woburn, Mass.) and the concentration reported in molarity and/or mass per volume.

Series [2] in a line: Stability in mouse liver microsomal preparations. In kind it is in vitro ADME. As to conditions: liver microsomes, with and without 1 mM NADPH (not said which), read-out: Mouse Liver Microsomes t1/2. The procedure:
(§1) Relative stability of Example Compound Nos. 1 through 60 in mouse plasma and mouse liver microsomal preparations.
(§2) Certain Example Compounds were each added to a final concentration of 1 μM to 1 mL of each of mouse plasma and mouse liver microsomal preparations (with and without 1 mM NADPH). Stability assays were run in duplicate and were sampled at 0, 5, 15, 30, 60 and 120 minutes as follows: one hundred microliter aliquots of samples were removed at the specified sampling times, and the reaction was quenched with 400 μL of acetonitrile.
(§3) Samples were analyzed by HPLC-ESI-MS/MS by measuring the peak area of both the starting Example Compound and parent compound (i.e., either Parent Compound A or Parent Compound B) that were created by removal of the Prodrug Moiety (as defined in Section 6 herein).
Background: Liver microsomes are vesicles of endoplasmic reticulum, rich in cytochrome P450 enzymes.

The nature of series [3]: Stability assessment / semi-quantitative hygroscopicity in a relative humidity (RH) chamber. In kind it is physicochemical. The conditions noted are these: solid in RH chamber; morphology and parent:prodrug composition. The procedure:
“ND” in Table 2 refers to “No Data”. Purity was determined by HPLC. Melting point was determined by differential scanning calorimetry (“DSC”), and semi-quantitative hygroscopicity was determined in a relative humidity (“RH”) chamber.

Series [4] is described as follows: Stability in mouse plasma. It counts as in vitro ADME. The conditions noted are these: read-out: Mouse Plasma t1/2. On the procedure: as §1, §2, §3
Series [5] relates to HT1080 human fibrosarcoma cancer cells. The series is described as follows: Anti-tumor activity in HT1080 human fibrosarcoma xenograft with twice daily dosing. In kind it is in vivo. As to conditions: for animals with no detectable tumors by the end of the study: cohort of ten. The procedure: One million HT1080 cells were implanted subcutaneously in the right flank of female nude mice (Crl:NU-Fox1^nu). When the median tumor volume (MTV) was approximately 209 mm^3, mice were randomized into four cohorts of ten animals. […] All cohorts were dosed twice daily for 7 days. The mice were observed daily for mortality and signs of toxicity. Tumor volumes and body weights were determined from Days 1 to 22. The results are depicted in FIG. 4.
For orientation: In xenograft studies the graft and the host belong to different species.

The mark [6] stands for this setting: pH 5.0, 15 minutes at room temperature.
Setting [7] is: pH 6.8, 15 minutes at room temperature.
[8] abbreviates: pH 7.4, 15 minutes at room temperature.
Where [9] appears, read: Example Compounds 44/45 study, 8 mg/kg twice daily for 7 days, Day 9.
Setting [10] is: Example Compounds 44/45 study, 8 mg/kg twice daily for 7 days, end of the study, Day 22.
[11] abbreviates: Example Compounds 44/45 study, 12 mg/kg twice daily for 7 days, Day 9.
The mark [12] stands for this setting: Example Compounds 44/45 study, 12 mg/kg twice daily for 7 days, end of the study, Day 22.

As to `CC(=O)OC[n+]1cccc(CNC(=O)Nc2ccc(OCCc3ccccc3-c3ccccc3)cc2)c1` [Example 34, 1-[(Acetyloxy)methyl]-3-{[({4-[2-(biphenyl-2-yl)ethoxy]phenyl}carbamoyl)amino]methyl}pyridinium], the solubility at 15 min in series [1] (setting [6]) came to 397 µM; in series [1] (setting [7]), 393 µM; in series [1] (setting [8]), 399 µM. In series [2], the half-life at 1 µM is less than 5 min.
Take `CC(C)(C)C(=O)OC[n+]1cccc(CNC(=O)Nc2ccc(OCCc3ccccc3-c3ccccc3)cc2)c1` [Example 36, 3-{[({4-[2-(Biphenyl-2-yl)ethoxy]phenyl}carbamoyl)amino]methyl}-1-{[(2,2-dimethylpropanoyl)oxy]methyl}pyridinium]: in series [3], the “Stability at 60° C. and 75% RH” value was “Oiled out at 1 hr No change in composition”. Further, the solubility at 15 min in series [1] (setting [6]) was determined as 601 µM; in series [1] (setting [7]) it was 547 µM; in series [1] (setting [8]), 524 µM.
For the compound `CC(=O)OC(C(C)C)[n+]1cccc(CNC(=O)Nc2ccc(OCCc3ccccc3-c3ccccc3)cc2)c1` (centres unmarked) [Example 38, 1-[1-(Acetyloxy)-2-methylpropyl]-3-{[({4-[2-(biphenyl-2-yl)ethoxy]phenyl}carbamoyl)amino]methyl}pyridinium], in series [3], the “Stability at 40° C. and 75% RH” value is given as “No change in morphology at 7 days”. Also, the “Stability at 60° C. and 75% RH” value in series [3] was “Deliquesced at 4 days”. For the same compound, the half-life at 1 µM is 30.9 min in series [2] and greater than 5 min in series [4].
On to `CC(OC(=O)C(C)(C)C)[n+]1cccc(CNC(=O)Nc2ccc(OCCc3ccccc3-c3ccccc3)cc2)c1` (centres unmarked) [Example 39, 3-{[({4-[2-(Biphenyl-2-yl)ethoxy]phenyl}carbamoyl)amino]methyl}-1-{1-[(2,2-dimethylpropanoyl)oxy]ethyl}pyridinium], for which, in series [3], the “Stability at 40° C. and 75% RH” value was “Deliquesced at 2 Hr No change in composition”; the “Stability at 60° C. and 75% RH” value is on record as “Deliquesced at 2 Hr No change in composition”. Besides, the half-life at 1 µM in series [2] is 113 min. Further, the half-life at 1 µM in series [4] turned out to be 27 min.
For the compound `CC(C)C(OC(=O)C(C)(C)C)[n+]1cccc(CNC(=O)Nc2ccc(OCCc3ccccc3-c3ccccc3)cc2)c1` (centres unmarked) [Example 40, 3-{[({4-[2-(Biphenyl-2-yl)ethoxy]phenyl}carbamoyl)amino]methyl}-1-{1-[(2,2-dimethylpropanoyl)oxy]-2-methylpropyl}pyridinium], in series [3], the “Stability at 40° C. and 75% RH” value is listed as “No change in morphology at 14 days, only prodrug observed”; the “Stability at 60° C. and 75% RH” value was “Approximately 5:95 parent to prodrug moiety observed at 14 days”. Further, the half-life at 1 µM in series [2] was 399 min. The half-life at 1 µM in series [4] worked out at 53.5 min.
For the compound `CCCC(=O)OC[n+]1cccc(CNC(=O)Nc2ccc(OCCc3ccccc3-c3ccccc3)cc2)c1` [Example 41, 3-{[({4-[2-(Biphenyl-2-yl)ethoxy]phenyl}carbamoyl)amino]methyl}-1-[(butanoyloxy)methyl]pyridinium], in series [3], the “Stability at 40° C. and 75% RH” value is listed as “No change in morphology at 14 days, only prodrug observed”; the “Stability at 60° C. and 75% RH” value is listed as “Deliquesced at 24 hr No change in composition”. Moreover, in series [2], the half-life at 1 µM is less than 5 min. Also, the half-life at 1 µM in series [4] was less than 5 min.
As to `CC(C)C(OC(=O)c1ccccc1)[n+]1cccc(CNC(=O)Nc2ccc(OCCc3ccccc3-c3ccccc3)cc2)c1` (centres unmarked) [Example 43, 1-[1-(Benzoyloxy)-2-methylpropyl]-3-{[({4-[2-(biphenyl-2-yl)ethoxy]phenyl}carbamoyl)amino]methyl} pyridinium], in series [3], the “Stability at 40° C. and 75% RH” value was “No change in morphology at 14 days, only prodrug observed”; the “Stability at 60° C. and 75% RH” value is given as “Approximately 5:95 parent to prodrug observed at 14 days”. Moreover, the half-life at 1 µM in series [2] amounted to 59.1 min. In addition, the half-life at 1 µM in series [4] amounted to 29.8 min.
Turning to `CC(C)C(=O)OC[n+]1cccc(CNC(=O)Nc2ccc(OCCc3ccccc3-c3ccccc3)cc2)c1` [Example 44, 3-{[({4-[2-(Biphenyl-2-yl)ethoxy]phenyl}carbamoyl)amino]methyl}-1-{[(2-methylpropanoyl)oxy]methyl}pyridinium], the “Stability at 40° C. and 75% RH” value in series [3] is listed as “No change in morphology at 14 days, circa 7:93 parent to prodrug”. Moreover, the “Stability at 60° C. and 75% RH” value in series [3] is “Deliquesced at 5 days approximately 50:50 parent to prodrug”. Besides, the half-life at 1 µM in series [2] and in series [4] was less than 5 min each time. Further, the “animals with no detectable tumors by the end of the study” value is listed as “One” in series [5] (Example Compounds 44/45 study, 8 mg/kg) and “three” in series [5] (Example Compounds 44/45 study, 12 mg/kg). Besides, the MTV decrease in series [5] (setting [9]) amounted to 62%; in series [5] (setting [11]) it was 67%; in series [5] (setting [12]), 67%. In addition, the results for the tumor regression in series [5] (setting [9]), in series [5] (setting [11]) and in series [5] (setting [12]) were 62%, 67% and 67%, respectively. This compound displayed an MTV increase in series [5] (setting [10]) of 16%. In series [5] (setting [10]), this compound returned a tumor growth inhibition of 95%. Also, in series [5] (administered orally, twice daily, all doses tested), the “anti-tumor activity in the HT1080 xenograft model (summary statement)” value is given as “significant anti-tumor activity”. In series [5] (xenograft mice, all doses tested, orally twice daily), the Tolerability entry is “well tolerated”.

Usually solubility stands for how much of the substance goes into solution per volume. Read a low solubility as a poorly soluble substance.
